In patent US20130109758A1, “BISPHENOL DERIVATIVE THERAPEUTICS AND METHODS FOR THEIR USE” (THE UNIVERSITY OF BRITISH COLUMBIA, priority 2010, published 2013):

Target: T1, androgen receptor (AR) (Homo sapiens, UniProt P10275, T878A)
T1 construct: LNCaP cells express endogenous AR and secrete prostate-specific antigen (PSA); endogenous in cells; host or cells: LNCaP human prostate cancer cells
T1 sequence (P10275 1-920 T878A): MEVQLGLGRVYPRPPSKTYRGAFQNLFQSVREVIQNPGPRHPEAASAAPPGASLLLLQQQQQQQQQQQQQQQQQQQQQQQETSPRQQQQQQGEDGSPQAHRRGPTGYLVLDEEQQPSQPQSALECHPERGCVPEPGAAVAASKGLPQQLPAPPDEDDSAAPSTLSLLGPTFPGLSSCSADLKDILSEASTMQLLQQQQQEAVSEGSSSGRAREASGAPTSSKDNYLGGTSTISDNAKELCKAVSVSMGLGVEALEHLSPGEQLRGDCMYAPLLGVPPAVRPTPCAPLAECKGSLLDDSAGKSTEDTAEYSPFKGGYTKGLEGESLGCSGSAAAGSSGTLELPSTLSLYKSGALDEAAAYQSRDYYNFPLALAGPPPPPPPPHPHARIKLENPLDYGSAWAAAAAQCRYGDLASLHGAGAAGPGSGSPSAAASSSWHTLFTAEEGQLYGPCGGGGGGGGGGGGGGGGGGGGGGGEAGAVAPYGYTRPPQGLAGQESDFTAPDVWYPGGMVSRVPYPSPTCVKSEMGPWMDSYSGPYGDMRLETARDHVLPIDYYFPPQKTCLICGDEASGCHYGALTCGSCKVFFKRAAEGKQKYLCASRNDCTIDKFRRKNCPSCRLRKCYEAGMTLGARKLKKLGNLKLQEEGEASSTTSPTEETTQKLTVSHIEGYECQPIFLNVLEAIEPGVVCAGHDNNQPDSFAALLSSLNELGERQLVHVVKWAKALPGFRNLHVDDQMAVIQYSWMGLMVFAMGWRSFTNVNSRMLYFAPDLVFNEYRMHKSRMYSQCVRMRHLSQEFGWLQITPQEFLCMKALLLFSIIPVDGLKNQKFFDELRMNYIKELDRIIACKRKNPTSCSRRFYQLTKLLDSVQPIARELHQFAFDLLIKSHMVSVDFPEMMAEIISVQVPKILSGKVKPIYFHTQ
Experiment: LNCaP PSA (6.1 kb)-luciferase assay (R1881-induced)
Format: cell-based
Details: LNCaP PSA (6.1 kb)-luciferase assay, dose response against DMSO and EPI-001 controls (FIGS. 1-6)
Excerpt: LNCaP cells were employed initially for all experiments because they are well-differentiated human prostate cancer cells in which ligand-independent activation of the AR by FSK has been characterized (Nazareth et al 1996 J. Biol. Chem. 271, 19900-19907; and Sadar 1999 J. Biol. Chem. 274, 7777-7783). LNCaP cells express endogenous AR and secrete prostate-specific antigen (PSA) (Horoszewicz et al 1983 Cancer Res. 43, 1809-1818). LNCaP cells can be grown either as monolayers in cell culture or as tumors in the well-characterized xenograft model that progresses to androgen independence in castrated hosts (Sato et al 1996 J. Steroid Biochem. Mol. Biol. 58, 139-146; Gleave et al 1991 Cancer Res. 51, 3753-3761; Sato et al 1997 Cancer Res. 57, 1584-1589; and Sadar et al 2002 Mol. Cancer. Ther. 1(8), 629-637). […] Small molecules that specifically target the AR-NTD should have no effect on PC3 cells. This means that they should not alter the proliferation of PC3 cells if they specifically block the AR to mediate their inhibitory effects. R1881 was employed since it is stable and avoids problems associated with the labile physiological ligand dihydrotestosterone (DHT). Reporter specificity may be determined using several alternative reporter gene constructs. Some well characterized ARE-driven reporter gene constructs that have been used extensively are the PSA (6.1 kb) enhance/promoter which contains several AREs and is highly inducible by androgens as well as by FSK (Ueda et al 2002 A J. Biol. Chem. 277, 7076-7085) and the ARR3-thymidine kinase (tk)-luciferase, which is an artificial reporter construct that contains three tandem repeats of the rat probasin ARE1 and ARE2 regions upstream of a luciferase reporter (Snoek et al 1996 J. Steroid Biochem. Mol. Biol. 59, 243-250).
LNCaP cells were transiently cotransfected with PSA (6.1 kb)-luciferase (0.25 μg/well) in 24-well plates for 24 h prior to pre-treatment with compounds for 1 hour before the addition of synthetic androgen, R1881 (1 nM) to induce PSA production or vehicle. The total amount of plasmid DNA transfected was normalized to 0.75 μg/well by the addition of the empty vector. After 48 h of incubation with R1881, the cells were harvested, and relative luciferase activity was determined. Test compounds were added to the cells at various concentrations and activity for each treatment was normalized to the predicted maximal activity induction (in the absence of test compounds, vehicle only). Plotting of sigmoidal curves (Boltzmann Function) and IC50 calculations were done using OriginPro 8.1 Software (Northampton, Mass., USA).
Using the LNCaP PSA (6.1 kb)-luciferase assay described above, various compounds described herein were tested against DMSO and EPI-001 controls. In FIG. 1, a comparison is made between EPI-100, EPI-101, EPI-102 and DMSO from 1 to 35 μM. […] In FIG. 3A, EPI-107 is compared to DMSO and EPI-001 at 2.5 μM to 10 μM. In FIG. 3B, EPI-108 is compared to DMSO at 0.5 μM to 35 μM. In FIG. 4A, EPI-114 is compared to DMSO and EPI-001 at 5 μM and 10 μM. In FIG. 4B, EPI-116 is compared to DMSO and EPI-001 at 1 μM to 30 μM.

Compound | androgen receptor inhibitory activity
C#CCOc1ccc(C(=O)c2ccc(O)cc2)cc1 [EPI-106] | showed androgen receptor inhibitory activity
C#CCOc1ccc(C(=O)c2ccc(OCCCCl)cc2)cc1 [EPI-107] | showed androgen receptor inhibitory activity
C#CCOc1ccc(C(=O)c2ccc(OCCCBr)cc2)cc1 [EPI-108] | showed androgen receptor inhibitory activity
C#CCOc1ccc(C(=O)c2ccc(OCC#C)cc2)cc1 [EPI-109] | showed androgen receptor inhibitory activity
C#CCOc1ccc(C(=O)c2ccc(OCC(O)CO)cc2)cc1 (stereo not drawn) [EPI-111] | showed androgen receptor inhibitory activity
O=C(c1ccc(OCC(O)CCl)cc1)c1ccc(OCC(O)CCl)cc1 (stereo not drawn) [EPI-114] | showed androgen receptor inhibitory activity
O=C(c1ccc(OCCCCl)cc1)c1ccc(OCCCCl)cc1 [EPI-116] | showed androgen receptor inhibitory activity
O=C(c1ccc(O)cc1)c1ccc(OCCCCl)cc1 [EPI-117] | showed androgen receptor inhibitory activity
OC(CCl)COc1ccc(Oc2ccc(OCC(O)CCl)cc2)cc1 (stereo not drawn) [EPI-300] | showed androgen receptor inhibitory activity
OC(CCl)COc1ccc(Sc2ccc(OCC(O)CCl)cc2)cc1 (stereo not drawn) [EPI-400] | showed androgen receptor inhibitory activity
OC(CCl)COc1ccc(-c2ccc(OCC(O)CCl)cc2)cc1 (stereo not drawn) [EPI-3000] | showed androgen receptor inhibitory activity

Same assay, conditions: LNCaP cells transfected with PSA (6.1 kb)-luciferase, 1 h pre-treatment with compound, R1881 1 nM, 48 h

Compound | EXPERIMENTAL DATA (activity in the LNCaP PSA (6.1 kb)-luciferase assay)
C#CCOc1ccc(C(=O)c2ccc(OCC(O)CCl)cc2)cc1 (centres unmarked) | Active
C#CCOc1ccc(C(=O)c2ccc(OC[C@@H](O)CCl)cc2)cc1 | Active
C#CCOc1ccc(C(=O)c2ccc(OC[C@H](O)CCl)cc2)cc1 | Active
C#CCOc1ccc(C(=O)c2ccc(O)cc2)cc1 [drawing 505] | Active
C#CCOc1ccc(C(=O)c2ccc(OCCCCl)cc2)cc1 [drawing 506] | Active
C#CCOc1ccc(C(=O)c2ccc(OCCCBr)cc2)cc1 [drawing 507] | Active
C#CCOc1ccc(C(=O)c2ccc(OCC#C)cc2)cc1 [drawing 508] | Active
C#CCOc1ccc(C(=O)c2ccc(OCC(O)CO)cc2)cc1 (centres unmarked) [drawing 509] | Active
O=C(c1ccc(OCC(O)CCl)cc1)c1ccc(OCC(O)CCl)cc1 (centres unmarked) [drawing 510] | Active
O=C(c1ccc(OCCCCl)cc1)c1ccc(OCCCCl)cc1 [drawing 511] | Active
O=C(c1ccc(O)cc1)c1ccc(OCCCCl)cc1 [drawing 512] | Active
OC(CCl)COc1ccc(Oc2ccc(OCC(O)CCl)cc2)cc1 (centres unmarked) [drawing 513] | Active
OC(CCl)COc1ccc(Sc2ccc(OCC(O)CCl)cc2)cc1 (centres unmarked) [drawing 514] | Active
OC(CCl)COc1ccc(-c2ccc(OCC(O)CCl)cc2)cc1 (centres unmarked) [drawing 515] | Active
CC(C)(c1ccc(OCC(O)CO)cc1)c1ccc(OCC(O)CCl)cc1 (centres unmarked) [reference compound] | Active (positive control)
